Values after ≈ are worked out from the molar mass of the structure shown. Read-outs that look alike come from different tables or passages of the source.

One may read the IC50 as the midpoint of a concentration-inhibition curve.

Data set [1] can be described thus: Thermodynamic equilibrium aqueous solubility. The data set is classed as physicochemical. The following applies: thermodynamic from solid, 18-24 hours at room temperature, read-out: Solubility (μg/mL) pH 1.0, 4.0, 6.5, 7.4 buffers. As for the experimental part: Thermodynamic Equilibrium Aqueous Solubility Evaluation
The calibration standard is prepared by accurately weighing 0.3-0.7 mg of sample into 5 ml volumetric flask and then dissolved in pure methanol. If the standard material is not fully soluble in methanol, other solvents such as DMSO or mixed solvent systems can used.
The calibration standard is typically prepared fresh, before the start of the assay. Note the calibration standard must be fully dissolved. A single point calibration curve is used to determine the concentration of the final saturated solution.
The saturated solution is prepared by adding 1.0 ml of the appropriate aqueous solvent to the remaining portion/portions of material (˜1 mg/l ml) into the 1 dram submission vial. The solution is sonicated and vortexed for ˜30 seconds. The sample solution is placed on an orbiter that continually agitates the sample solutions for 18-24 hours at room temperature. The saturated solution is then transferred to a 1.5 ml eppendorf tube and centrifuged for ˜2 min. at 10000 rpms. The supernatant from the saturated solution is filtered, using a 0.45 μm PTFE syringe filter, into a 1.5 mL glass HPLC.
The standards and sample are analyzed by HPLC using either UV/Vis diode array or variable wavelength detection. Typical quantitation wavelengths are 210 or 254 nm; detection wavelength can be individually customized to optimize sensitivity. In addition to UV detection, mass spectrometry detection is recommended in order to confirm the Mass of the peak of interest.
Dilutions of saturated aqueous test solutions are performed if HPLC-UV peak is beyond the linear portion of the standard calibration curve. Typical dilutions include 100 μl/900 μl (×10) or 500 μl/500 μl (2×), as required.
HPLC grade solvents are employed.

For a further data set, the target named is T1, human IDO1 (Homo sapiens, UniProt P14902).
T1 construct: expressed in transfected cells
T1 sequence (P14902 whole entry): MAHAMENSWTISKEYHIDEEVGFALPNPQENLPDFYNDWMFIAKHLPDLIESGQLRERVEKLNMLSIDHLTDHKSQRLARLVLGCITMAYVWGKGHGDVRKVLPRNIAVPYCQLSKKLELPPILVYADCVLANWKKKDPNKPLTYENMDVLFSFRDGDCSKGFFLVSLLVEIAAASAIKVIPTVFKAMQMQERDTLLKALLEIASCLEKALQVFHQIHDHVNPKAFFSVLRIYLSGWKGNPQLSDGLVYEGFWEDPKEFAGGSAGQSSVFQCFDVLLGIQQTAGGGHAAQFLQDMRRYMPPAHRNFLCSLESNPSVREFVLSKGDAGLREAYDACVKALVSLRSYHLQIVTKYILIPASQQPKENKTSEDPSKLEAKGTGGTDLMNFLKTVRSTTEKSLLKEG
The data set can be described thus: Human IDO1/HEK293 cell IDO inhibition assay. The data set is classed as cell-based. The conditions noted are these: human IDO1/HEK293 cells, 20 hours; read-out: IDO1 HEK Human IC50. The method, then:
HEK293 cells were transfected with a pCDNA-based mammalian expression vector harboring human IDO1 cDNA (NM 002164.2) by electroporation. They were cultured in medium (DMEM with 10% FBS) containing 1 mg/ml G418 for two weeks. Clones of HEK293 cells that stably expressed human IDO1 protein were selected and expanded for IDO inhibition assay.
The human IDO1/HEK293 cells were seeded at 10,000 cells per 50 μL per well with RPMI/phenol red free media contains 10% FBS in a 384-well black wall clear bottom tissue culture plate (Matrix Technologies LLC) 100 nL of certain concentration of compound was then added to each well using ECHO liquid handling systems. The cells were incubated for 20 hours in 37° C. incubator with 5% CO2.
The compound treatments were stopped by adding trichloroacetic acid (Sigma-Aldrich) to a final concentration at 0.2%. The cell plate was further incubated at 50° C. for 30 minute. The equal volume supernatant (20 μL) and 0.2% (w/v) Ehrlich reagent (4-dimethylaminobenzaldehyde, Sigma-Aldrich) in glacial acetic acid were mixed in a new clear bottom 384-well plate. This plate was then incubated at room temperature for 30 minute. The absorbance at 490 nm was measured on Envision plate reader. […]

Data set [2] addresses T2, indoleamine 2,3-dioxygenase (IDO) (Homo sapiens, UniProt P14902).
T2 construct: endogenous in cells; host or cells: HeLa (ATCC CCL-2), stimulated with IFN-gamma at 25 ng/mL
The data set can be described thus: HeLa cell-based indoleamine 2,3-dioxygenase (IDO) assay, kynurenine production. The conditions noted are these: HeLa cells, IFNγ 25 ng/mL, 48 hour incubation. The method, then:
Assessment of inhibitor activity in HeLa cell-based indoleamine 2,3-dioxygenase (IDO) assay:
HeLa (ATCC® CCL-2) cells were obtained from the ATCC® and cultured in Dulbecco's Modified Eagle Medium supplemented with 4.5 g/L glucose, […] (#10-013-CV, Corning), 2 mM L-alanyl-L-glutamine dipeptide (#35050-061, Gibco), 100U/mL penicillin, 100 μg/mL streptomycin (#SV30010, HyClone) and 10% fetal bovine serum (#SH30071.03 HyClone). Cells were maintained in a humidified incubator at 37° C. in 5% CO2.
IDO activity was assessed as a function of kynurenine production as follows: HeLa cells were seeded in a 96-well culture plate at a density of 5,000 cells/well and allowed to equilibrate overnight. After 24 hours, the media was aspirated and replaced with media containing IFNγ (#285-IF/CF, R&D Systems) at a final concentration of 25 ng/mL. A serial dilution of each test compound was added to the cells in a total volume of 200 μL of culture medium. […] Kynurenine concentrations were determined by measuring absorbance at 480 nm and calibrating against an L-kynurenine (#K8625, Sigma-Aldrich) standard curve using a SPECTRAMAX® M2e microplate reader (Molecular Devices). The percentage activity at each inhibitor concentration was determined and IC50 values assessed using nonlinear regression.

Where [3] appears, read: aqueous buffer pH 1.0, simulated gastric fluid, pH 1.0 buffer.
The mark [4] stands for this setting: aqueous buffer pH 4.0, aqueous buffer, pH 4.0 buffer.
Setting [5] is: aqueous buffer pH 6.5, aqueous buffer, pH 6.5 buffer.
[6] abbreviates: aqueous buffer pH 7.4, aqueous buffer, pH 7.4 buffer.

T2 sequence (P14902 whole entry): as above

As to `CC[C@@H](CC(=O)OC(C)OC(=O)N(C)c1ncccc1COP(=O)(O)O)c1ccc(N(CC(C)C)CC(C)C)c(NC(=O)Nc2ccc(C)cc2)c1` (stereo partly drawn) [Example 20, (3S)-1-((Methyl(3-((phosphonooxy)methyl)pyridin-2-yl)carbamoyl)oxy)ethyl 3-(4-(diisobutylamino)-3-(3-(p-tolyl)ureido)phenyl)pentanoate], the solubility in data set [1] (setting [3]) is 35 µg/mL (≈ 47.2 µM); in data set [1] (setting [4]), greater than 500 µg/mL; in data set [1] (setting [5]), greater than 500 µg/mL; in data set [1] (setting [6]), greater than 500 µg/mL.

Regarding `CC[C@@H](CC(=O)OCOC(=O)OCC(C)OP(=O)(O)O)c1ccc(N(CC(C)C)CC(C)C)c(NC(=O)Nc2ccc(C)cc2)c1` (stereo partly drawn) [Example 22, (3S)-(((2-(Phosphonooxy)propoxy)carbonyl)oxy)methyl 3-(4-(diisobutylamino)-3-(3-(p-tolyl)ureido)phenyl)pentanoate], the solubility in data set [1] (setting [3]) is 15 µg/mL (≈ 22.5 µM); in data set [1] (setting [4]), greater than 500 µg/mL; in data set [1] (setting [5]) it was 22 µg/mL (≈ 33 µM); in data set [1] (setting [6]) it was 16 µg/mL (≈ 24 µM).

On to `CC[C@@H](CC(=O)OCOC(=O)CCCOP(=O)(O)O)c1ccc(N(CC(C)C)CC(C)C)c(NC(=O)Nc2ccc(C)cc2)c1` [Example 4, (S)-((4-(Phosphonooxy)butanoyl)oxy)methyl 3-(4-(diisobutylamino)-3-(3-(p-tolyl)ureido) Phenyl) Pentanoate], for which the solubility in data set [1] (setting [3]) was 24 µg/mL (≈ 36.9 µM); in data set [1] (setting [4]), greater than 500 µg/mL; in data set [1] (setting [5]), greater than 500 µg/mL; in data set [1] (setting [6]) it was 158 µg/mL (≈ 243 µM).

Take `CCOP(=O)(O)OCOC(=O)C[C@H](CC)c1ccc(N(CC(C)C)CC(C)C)c(NC(=O)Nc2ccc(C)cc2)c1` [Example 9, (3S)-((Ethoxy(hydroxy)phosphoryl)oxy)methyl 3-(4-(diisobutylamino)-3-(3-(p-tolyl)ureido)phenyl)pentanoate]: the solubility is 215 µg/mL (≈ 363 µM) in data set [1] (setting [3]), greater than 1100 µg/mL in data set [1] (setting [4]), greater than 2000 µg/mL in data set [1] (setting [5]) and greater than 2000 µg/mL in data set [1] (setting [6]).

Regarding `CC[C@@H](CC(=O)O)c1ccc(N(CC(C)C)CC(C)C)c(NC(=O)Nc2ccc(C)cc2)c1` [Example 1E, (S)-3-(4-(diisobutylamino)-3-(3-(p-tolyl)ureido)phenyl)pentanoic Acid], the solubility in data set [1] (setting [3]) is 630 µg/mL (≈ 1390 µM); in data set [1] (setting [6]), 1 µg/mL (≈ 2.2 µM). Also, the IC50 was determined as 3.1 nM at human IDO1 and 4.1 nM in data set [2].

These data come from US11447449B2, “Inhibitors of indoleamine 2,3-dioxygenase and methods of their use” (BRISTOL-MYERS SQUIBB COMPANY, priority 2018, dated 2022).
